Values of other authors as cited in patent US12133900B2, “Synthesis and composition of amino acid linking groups conjugated to compounds used for the targeted imaging of tumors” (Purdue Research Foundation, priority 2013, dated 2024).

Assays:
[1] = instability of the thiourea bridge; cited from earlier work
[2] = system: malignant lesions in human ovarian cancer patients; conditions: intra-operative; cited from earlier work

Nc1nc2ncc(CNc3ccc(C(=O)NC(CCC(=O)NCCNC(=S)Nc4ccc(-c5c6ccc(=O)cc-6oc6cc(O)ccc56)c(C(=O)O)c4)C(=O)O)cc3)nc2c(=O)[nH]1 (stereo not drawn) [EC17, folate-ethelenediamine-fluorescein isothiocynate]
shelf-life stability [1]: easily decomposes | more malignant lesions removed with the dye than without it [2]: ~5 × | pathology of resected fluorescent lesions [2]: confirmed by pathology to be malignant
